Test results as given in patent US20170008888A1 (KYORIN PHARMACEUTICAL CO., LTD., priority 2014, published 2017).
pIC50: −log10 of the molar value. Read-outs that look alike come from different tables or passages of the source.

Key:
Assay type in all cases: binding
[1] = target: T1, ERK5 (Homo sapiens, UniProt Q13164); experiment: Probe-based (AX9989 acyl phosphate ATP probe) kinase profiling in Jurkat lysate: ERK5; details: for pIC50: Jurkat lysate
T1 construct: screened for activity against several kinases in Jurkat cells; endogenous in cells; host or cells: Jurkat cell lysate
Summary of the method: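 ERK5 IC50 values came from percent inhibition at the screening concentration, measured as loss of LC/MS signal of probe-labelled active-site peptides. Compound was added for 15 min at room temperature to Jurkat lysate (5 mg/ml, 20 mM MnCl2) before labelling with AX9989 ATP acyl phosphate probe at 5 μM.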

[2] = target: T2, AurA (Homo sapiens, UniProt O14965); experiment: Probe-based (AX9989) kinase profiling in Jurkat lysate: AurA
T2 construct: screened for activity against several kinases in Jurkat cells; endogenous in cells; host or cells: Jurkat cell lysate
T2 sequence (O14965 1-403): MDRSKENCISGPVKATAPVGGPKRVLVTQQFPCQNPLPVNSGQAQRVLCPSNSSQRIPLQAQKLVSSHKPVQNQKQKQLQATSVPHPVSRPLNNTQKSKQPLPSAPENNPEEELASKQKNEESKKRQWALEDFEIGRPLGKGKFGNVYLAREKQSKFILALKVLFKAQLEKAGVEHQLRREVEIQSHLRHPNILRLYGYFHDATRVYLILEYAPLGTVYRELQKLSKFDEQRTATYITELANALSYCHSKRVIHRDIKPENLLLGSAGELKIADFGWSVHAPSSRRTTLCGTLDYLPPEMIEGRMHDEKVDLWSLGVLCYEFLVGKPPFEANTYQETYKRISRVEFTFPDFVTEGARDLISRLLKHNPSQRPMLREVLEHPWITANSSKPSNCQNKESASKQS
Summary of the method: (§1)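 Read-out: LC/MS intensity of desthiobiotinylated kinase active-site peptides, percent inhibition normalized to no-compound lysate. Jurkat lysate with 20 mM MnCl2 received compound for 15 min at room temperature, then 5 μM AX9989 probe; duplicates.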

[3] = target: T3, JAK1 (Homo sapiens, UniProt P23458); experiment: Probe-based (AX9989) kinase profiling in Jurkat lysate: JAK1
T3 construct: screened for activity against several kinases in Jurkat cells; endogenous in cells; host or cells: Jurkat cell lysate
Summary of the method: as §1

[4] = tested on: AMPKa1 or AMPKa2; experiment: Probe-based (AX9989) kinase profiling in Jurkat lysate: AMPKa1 or AMPKa2; details: for Kinase inhibition % at indicated screening concentration: AMPKa1 or AMPKa2: screening concentration 1.0 μM
Summary of the method: as §1

[5] = target: T4, TAO2 (Homo sapiens, UniProt Q9UL54); experiment: Probe-based (AX9989) kinase profiling in Jurkat lysate: TAO2
T4 construct: screened for activity against several kinases in Jurkat cells; endogenous in cells; host or cells: Jurkat cell lysate
T4 sequence (Q9UL54 1-1235): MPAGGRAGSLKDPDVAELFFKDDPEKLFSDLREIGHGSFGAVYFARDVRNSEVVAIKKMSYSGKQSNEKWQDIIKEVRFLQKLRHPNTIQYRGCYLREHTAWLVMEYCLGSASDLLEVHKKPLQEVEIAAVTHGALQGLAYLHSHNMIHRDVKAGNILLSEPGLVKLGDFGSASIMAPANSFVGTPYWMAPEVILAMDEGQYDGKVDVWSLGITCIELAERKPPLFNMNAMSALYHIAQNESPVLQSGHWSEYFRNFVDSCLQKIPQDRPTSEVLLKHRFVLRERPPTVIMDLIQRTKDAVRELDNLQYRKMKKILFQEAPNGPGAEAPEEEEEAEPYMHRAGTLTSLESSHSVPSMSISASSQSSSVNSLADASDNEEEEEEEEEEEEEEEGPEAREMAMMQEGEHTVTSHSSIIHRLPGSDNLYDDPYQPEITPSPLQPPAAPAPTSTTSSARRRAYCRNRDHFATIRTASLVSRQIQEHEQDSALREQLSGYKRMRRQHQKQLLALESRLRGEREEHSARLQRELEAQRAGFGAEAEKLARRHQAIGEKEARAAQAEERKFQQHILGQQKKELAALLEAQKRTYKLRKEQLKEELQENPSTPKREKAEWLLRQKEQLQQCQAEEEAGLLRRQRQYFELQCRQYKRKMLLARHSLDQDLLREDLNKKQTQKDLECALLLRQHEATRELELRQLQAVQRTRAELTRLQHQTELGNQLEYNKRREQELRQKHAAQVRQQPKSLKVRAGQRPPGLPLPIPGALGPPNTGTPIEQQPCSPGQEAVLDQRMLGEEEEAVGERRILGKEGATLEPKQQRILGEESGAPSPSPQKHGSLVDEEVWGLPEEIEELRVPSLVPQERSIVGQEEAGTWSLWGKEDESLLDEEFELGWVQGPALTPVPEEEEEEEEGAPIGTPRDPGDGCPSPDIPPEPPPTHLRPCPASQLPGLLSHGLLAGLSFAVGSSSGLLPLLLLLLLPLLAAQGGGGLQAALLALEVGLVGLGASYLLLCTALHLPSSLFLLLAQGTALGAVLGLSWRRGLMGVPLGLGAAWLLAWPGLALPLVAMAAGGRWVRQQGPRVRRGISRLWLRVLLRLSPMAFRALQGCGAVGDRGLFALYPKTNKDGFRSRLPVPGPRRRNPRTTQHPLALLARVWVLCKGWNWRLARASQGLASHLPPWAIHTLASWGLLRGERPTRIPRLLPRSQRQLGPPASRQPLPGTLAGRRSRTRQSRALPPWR
Summary of the method: as §1

[6] = tested on: ABL or ARG; experiment: Probe-based (AX9989) kinase profiling in Jurkat lysate: ABL or ARG; details: for Kinase inhibition % at indicated screening concentration: ABL or ARG: screening concentration 1.0 μM
Summary of the method: as §1

[7] = calculated from percent inhibition of AX9989 labeling and the screening concentration
[8] = screening concentration 1.0 μM, read-out: Kinase inhibition % at indicated screening concentration: ERK5
[9] = screening concentration 1.0 μM, read-out: Kinase inhibition % at indicated screening concentration: AurA
[10] = screening concentration 1.0 μM, read-out: Kinase inhibition % at indicated screening concentration: JAK1
[11] = screening concentration 1.0 μM, read-out: Kinase inhibition % at indicated screening concentration: TAO2

T3 sequence (P23458 whole entry): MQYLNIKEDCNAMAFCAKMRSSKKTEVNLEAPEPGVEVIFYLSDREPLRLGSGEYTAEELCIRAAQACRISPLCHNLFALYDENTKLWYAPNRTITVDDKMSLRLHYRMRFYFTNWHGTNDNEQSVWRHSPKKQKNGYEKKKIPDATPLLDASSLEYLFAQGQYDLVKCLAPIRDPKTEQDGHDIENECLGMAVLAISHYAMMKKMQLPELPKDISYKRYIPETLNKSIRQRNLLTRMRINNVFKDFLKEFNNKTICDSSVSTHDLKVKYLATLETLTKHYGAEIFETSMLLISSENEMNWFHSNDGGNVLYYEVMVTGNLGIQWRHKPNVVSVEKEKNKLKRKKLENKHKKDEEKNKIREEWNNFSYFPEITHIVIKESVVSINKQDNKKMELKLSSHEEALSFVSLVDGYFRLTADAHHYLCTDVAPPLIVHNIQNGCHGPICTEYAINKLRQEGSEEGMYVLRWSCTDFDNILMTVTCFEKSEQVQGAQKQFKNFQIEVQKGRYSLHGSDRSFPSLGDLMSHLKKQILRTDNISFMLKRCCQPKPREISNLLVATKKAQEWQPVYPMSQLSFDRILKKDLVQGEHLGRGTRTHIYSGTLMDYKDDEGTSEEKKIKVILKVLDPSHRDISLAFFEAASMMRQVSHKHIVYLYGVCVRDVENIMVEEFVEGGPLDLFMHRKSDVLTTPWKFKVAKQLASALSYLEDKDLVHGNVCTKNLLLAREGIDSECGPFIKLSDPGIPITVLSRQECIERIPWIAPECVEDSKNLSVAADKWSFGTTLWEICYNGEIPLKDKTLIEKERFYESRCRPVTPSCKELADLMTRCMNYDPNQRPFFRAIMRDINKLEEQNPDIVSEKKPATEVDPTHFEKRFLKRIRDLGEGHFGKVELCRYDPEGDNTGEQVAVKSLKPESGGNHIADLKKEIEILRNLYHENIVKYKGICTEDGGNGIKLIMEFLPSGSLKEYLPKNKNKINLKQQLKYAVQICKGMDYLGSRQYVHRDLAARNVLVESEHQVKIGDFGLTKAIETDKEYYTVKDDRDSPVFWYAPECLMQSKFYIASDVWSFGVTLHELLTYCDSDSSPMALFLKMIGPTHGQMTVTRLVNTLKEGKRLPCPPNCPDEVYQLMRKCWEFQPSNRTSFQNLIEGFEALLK
T1 sequence (Q13164 whole entry): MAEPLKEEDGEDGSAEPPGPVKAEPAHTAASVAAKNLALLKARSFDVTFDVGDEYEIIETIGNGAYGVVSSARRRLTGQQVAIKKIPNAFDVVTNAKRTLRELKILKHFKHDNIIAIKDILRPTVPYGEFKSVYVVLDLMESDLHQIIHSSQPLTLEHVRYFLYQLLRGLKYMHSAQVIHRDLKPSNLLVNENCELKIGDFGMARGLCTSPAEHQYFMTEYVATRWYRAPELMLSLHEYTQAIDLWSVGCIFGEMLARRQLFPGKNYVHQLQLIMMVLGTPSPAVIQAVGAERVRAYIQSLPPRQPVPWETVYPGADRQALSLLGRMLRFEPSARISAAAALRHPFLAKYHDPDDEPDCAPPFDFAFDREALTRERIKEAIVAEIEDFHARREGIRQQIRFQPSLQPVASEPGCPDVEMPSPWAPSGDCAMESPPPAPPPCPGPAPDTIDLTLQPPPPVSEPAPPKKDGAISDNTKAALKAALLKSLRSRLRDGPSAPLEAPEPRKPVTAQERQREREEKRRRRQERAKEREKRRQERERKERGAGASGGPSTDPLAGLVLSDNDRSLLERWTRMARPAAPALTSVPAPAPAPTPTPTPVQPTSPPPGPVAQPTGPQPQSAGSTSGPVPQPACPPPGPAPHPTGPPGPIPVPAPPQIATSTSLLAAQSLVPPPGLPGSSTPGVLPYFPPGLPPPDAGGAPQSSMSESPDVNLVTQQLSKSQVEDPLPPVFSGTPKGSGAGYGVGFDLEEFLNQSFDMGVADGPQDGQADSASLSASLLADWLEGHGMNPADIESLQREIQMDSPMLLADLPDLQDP

COc1cc(NS(C)(=O)=O)ccc1Nc1cc2c(cn1)N(C)C(=O)c1ccccc1N2C [Compound 73]
pIC50 [1, 7]: 6.30 to 7.00
inhibition at 1 µM [1, 8]: 75 to 90%
inhibition at 1 µM [2, 9]: ≤ 35%
inhibition at 1 µM [3, 10]: ≤ 35%
Kinase inhibition % at indicated screening concentration: AMPKa1 or AMPKa2 [4]: E (E is ≦35%)
inhibition at 1 µM [5, 11]: ≤ 35%
Kinase inhibition % at indicated screening concentration: ABL or ARG [6]: E (E is ≦35%)

CCOc1cc(C(=O)N2CCC(NC3CCN(C)CC3)C2)ccc1Nc1cc2c(cn1)N(C)C(=O)c1ccccc1N2C (stereo not shown) [Compound T42]
pIC50 ([1]; calculated from percent inhibition and screening concentration, AX9989 probe): 7.00 to 7.30
inhibition at 1 µM ([1]; screening concentration 1 μM, read-out: ERK5 Inhibition % at indicated screening concentration): > 90%
inhibition at 1 µM ([2]; screening concentration 1 μM, read-out: AurA Inhibition % at indicated screening concentration): ≤ 35%
inhibition at 1 µM ([3]; screening concentration 1 μM, read-out: JAK1 Inhibition % at indicated screening concentration): ≤ 35%
AMPKa1 or AMPKa2 Inhibition % at indicated screening concentration ([4]; screening concentration 1 μM): E (E is ≦35%)
inhibition at 1 µM ([5]; screening concentration 1 μM, read-out: TAO2 Inhibition % at indicated screening concentration): ≤ 35%
ABL or ARG Inhibition % at indicated screening concentration ([6]; screening concentration 1 μM): E (E is ≦35%)

CN1C(=O)c2occc2N(C)c2cc(N[C@H]3CC[C@H](N)CC3)ncc21 [Compound 53]
pIC50 [1, 7]: 6.30 to 7.00
inhibition at 1 µM [1, 8]: 75 to 90%
inhibition at 1 µM [2, 9]: ≤ 35%
inhibition at 1 µM [3, 10]: ≤ 35%
Kinase inhibition % at indicated screening concentration: AMPKa1 or AMPKa2 [4]: E (E is ≦35%)
inhibition at 1 µM [5, 11]: ≤ 35%
Kinase inhibition % at indicated screening concentration: ABL or ARG [6]: E (E is ≦35%)

CCOc1cc(C(=O)N2CCC(CN3CCOCC3)CC2)ccc1Nc1cc2c(cn1)N(C)C(=O)c1ccccc1N2C [Compound 120]
pIC50 [1, 7]: ≥ 7.30
inhibition at 1 µM [1, 8]: > 90%
inhibition at 1 µM [2, 9]: ≤ 35%
inhibition at 1 µM [3, 10]: ≤ 35%
Kinase inhibition % at indicated screening concentration: AMPKa1 or AMPKa2 [4]: E (E is ≦35%)
inhibition at 1 µM [5, 11]: ≤ 35%
Kinase inhibition % at indicated screening concentration: ABL or ARG [6]: E (E is ≦35%)

CCOc1cc(C(=O)NCCO)ccc1Nc1cc2c(cn1)N(C)C(=O)c1ccccc1N2C [Compound 66]
pIC50 [1, 7]: < 6.30
inhibition at 1 µM [1, 8]: 50 to 75%
inhibition at 1 µM [2, 9]: ≤ 35%
inhibition at 1 µM [3, 10]: ≤ 35%
Kinase inhibition % at indicated screening concentration: AMPKa1 or AMPKa2 [4]: E (E is ≦35%)
inhibition at 1 µM [5, 11]: ≤ 35%
Kinase inhibition % at indicated screening concentration: ABL or ARG [6]: E (E is ≦35%)

CCOc1cc(C(=O)NCC2CC2)ccc1Nc1cc2c(cn1)N(C)C(=O)c1ccccc1N2C [Compound 57]
pIC50 [1, 7]: 6.30 to 7.00
inhibition at 1 µM [1, 8]: 50 to 75%
inhibition at 1 µM [2, 9]: ≤ 35%
inhibition at 1 µM [3, 10]: ≤ 35%
Kinase inhibition % at indicated screening concentration: AMPKa1 or AMPKa2 [4]: E (E is ≦35%)
inhibition at 1 µM [5, 11]: ≤ 35%
Kinase inhibition % at indicated screening concentration: ABL or ARG [6]: E (E is ≦35%)

CCOc1cc(C(=O)N2CCCN(C)CC2)ccc1Nc1cc2c(cn1)N(C)C(=O)c1ccccc1N2C [Compound 8]
pIC50 [1, 7]: 6.30 to 7.00
inhibition at 1 µM [1, 8]: > 90%
inhibition at 1 µM [2, 9]: ≤ 35%
inhibition at 1 µM [3, 10]: ≤ 35%
Kinase inhibition % at indicated screening concentration: AMPKa1 or AMPKa2 [4]: E (E is ≦35%)
inhibition at 1 µM [5, 11]: ≤ 35%
Kinase inhibition % at indicated screening concentration: ABL or ARG [6]: E (E is ≦35%)
